In patent US9586956B2, “Isoquinoline and naphthyridine derivatives” (Genentech, Inc., priority 2012, dated 2017):

Assays:
[1] = target: T1, purified human MAP4K4 kinase domain (Homo sapiens, UniProt O95819); assay: MAP4K4 Inhibition Assay Protocol No. 1 (Caliper LabChip, moesin-derived peptide phosphorylation); assay type: biochemical; settings: Assay 1; 1 nM enzyme, 10 uM ATP, 45 min
T1 construct: purified human MAP4K4 kinase domain
Procedure, shortened: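 1 nM enzyme with 1 uM 5-carboxyfluorescein-labelled moesin peptide and 10 uM ATP in 50 mM Hepes pH 7.2, 10 mM MgCl2, 2% DMSO, 45 min at room temperature, then EDTA stop. Phosphorylated fraction of peptide measured by microfluidic mobility shift; IC50 from four-parameter fit.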

[2] = target: T1, purified human MAP4K4 kinase domain; assay: MAP4K4 Inhibition Assay Protocol No. 2 (Z'-LYTE FRET); assay type: biochemical; settings: Assay 2; 1 nM enzyme, 10 uM ATP, 60 min
Text: The kinase activity of purified human MAP4K4 kinase domain was monitored using Z'-LYTE™ technology from Invitrogen to determine inhibition constants (IC50) of small molecule inhibitors. The Z'-LYTE™ biochemical assay employs a fluorescence-based, coupled-enzyme format and is based on the differential sensitivity of phosphorylated and non-phosphorylated peptides to proteolytic cleavage. In the primary reaction, the kinase transfers the gamma-phosphate of ATP to a single tyrosine, serine or threonine residue in a synthetic FRET-peptide. In the secondary reaction, a site-specific protease recognizes and cleaves non-phosphorylated FRET-peptides. Phosphorylation of FRET-peptides suppresses cleavage by the Development Reagent. Cleavage disrupts FRET between the donor (i.e., coumarin) and acceptor (i.e., fluorescein) fluorophores on the FRET-peptide, whereas uncleaved, phosphorylated FRET-peptides maintain FRET. To determine inhibition constants (IC50), compounds were serially diluted in DMSO and added to 10 uL kinase reactions containing 1 nM purified MAP4K4 enzyme, 2 uM ser/thr7 Z'-LYTE™ substrate, 10 uMATP, 50 mM Hepes (pH 7.5), 10 mM MgCl2, 1 mM EGTA, 0.01% Brij-35, and 2% DMSO. Reactions were incubated at room temperature in Corning Black 384 well plates (Corning#3573) for 60 minutes and stopped by the addition of 5 uL of Z'-LYTE™ development reagent A and incubated at room temp for 60 minutes. The plate is then analyzed on Perkin Elmer Envision by FRET mode. The high ratio of coumarin/fluorescein represents 0% phosphorylation rate while low ratio of coumarin/fluorescein represents 100% phosphorylation rate. The following equations are used to determine extent of peptide phosphorylation or inhibition: […]

T1 sequence (O95819 25-289 limits assumed): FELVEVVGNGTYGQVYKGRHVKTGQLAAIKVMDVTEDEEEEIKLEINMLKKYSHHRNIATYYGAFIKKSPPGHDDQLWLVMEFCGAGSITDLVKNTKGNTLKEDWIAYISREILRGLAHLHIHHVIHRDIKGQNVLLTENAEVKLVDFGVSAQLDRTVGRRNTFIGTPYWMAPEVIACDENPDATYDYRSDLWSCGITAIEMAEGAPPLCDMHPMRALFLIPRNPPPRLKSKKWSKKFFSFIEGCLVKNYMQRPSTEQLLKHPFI

IC50 [1] [µM] | IC50 [2] [µM] | SMILES
0.0705 | 0.0724 | COCC(=O)N1CC(NC(=O)c2cnc(N)c3cc(-c4cccc(F)c4)ccc23)C1 [Example 128, 1-amino-7-(3-fluorophenyl)-N-[1-(2-methoxyacetyl)azetidin-3-yl]isoquinoline-4-carboxamide]
4.1 | 3 | CNCc1cnc(N)c2cc(-c3cccc(F)c3)ccc12 [Example 129, 7-(3-fluorophenyl)-4-(methylaminomethyl) isoquinolin-1-amine]
0.0609 | 0.0665 | Nc1ncc(C(=O)NC(CO)CNC(=O)NC2CC2)c2ccc(-c3cccc(F)c3)cc12 (stereo not drawn) [Example 130, 1-amino-N-[1-[(cyclopropyl-carbamoylamino)methyl]-2-hydroxy-ethyl]-7-(3-fluorophenyl) isoquinoline-4-carboxamide]
0.168 | 0.174 | CCNC(=O)N1CC(NC(=O)c2cnc(N)c3cc(-c4cccc(F)c4)ccc23)C1 [Example 131, 1-amino-N-[1-(ethylcarbamoyl)azetidin-3-yl]-7-(3-fluorophenyl) isoquinoline-4-carboxamide]
0.18 | 0.191 | Nc1ncc(C(=O)NC2CN(C(=O)NC3CC3)C2)c2ccc(-c3cccc(F)c3)cc12 [Example 132, 1-amino-N-[1-(cyclopropyl-carbamoyl)azetidin-3-yl]-7-(3-fluorophenyl)isoquinoline-4-carboxamide]
0.0602 | 0.0919 | CCNC(=O)NCC(CO)NC(=O)c1cnc(N)c2cc(-c3cccc(F)c3)ccc12 (stereo not drawn) [Example 133, 1-amino-N-[1-[(ethylcarbamoyl-amino)methyl]-2-hydroxy-ethyl]-7-(3-fluorophenyl) isoquinoline-4-carboxamide]
